Where two headings read alike, the source gives them in different places.
Assays:
[1] = molecular target: T1, His-hMAGL (recombinant polyhistidine tagged human MAGL protein) (Homo sapiens, UniProt Q99685); assay: Measurement of MAGL inhibitory activity (RapidFire-mass spectrometry of arachidonic acid produced from 2-arachidonylglycerol); format: biochemical; details: read-out: % inhibition (10 μM)
T1 construct: polyhistidine (His) (N); made in house; host or cells: E. coli BL21(DE3)
T1 sequence (Q99685 1-303): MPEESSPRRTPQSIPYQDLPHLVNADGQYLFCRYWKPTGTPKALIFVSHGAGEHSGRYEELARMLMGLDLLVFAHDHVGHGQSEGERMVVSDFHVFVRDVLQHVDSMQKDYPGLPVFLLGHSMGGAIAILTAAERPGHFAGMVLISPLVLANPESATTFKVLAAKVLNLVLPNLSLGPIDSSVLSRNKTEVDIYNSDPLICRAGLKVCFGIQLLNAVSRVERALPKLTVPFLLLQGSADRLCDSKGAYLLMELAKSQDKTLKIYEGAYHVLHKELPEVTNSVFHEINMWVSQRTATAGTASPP
Summary of the method: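 After quenching with acetonitrile containing 3 μM arachidonic acid-d8, the arachidonic acid formed was measured by online SPE RapidFire-MS/MS in negative SRM mode and corrected against the d8 standard. Inhibition (%) was calculated relative to compound-free and enzyme-free groups.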

[2] = test system: intracerebral 2-AG and arachidonic acid; assay: Measurement of intracerebral 2-AG and arachidonic acid concentrations; format: in vivo, mouse (C57BL/6J); details: for 2-AG concentration / arachidonic acid concentration: cerebrum of male C57BL/6J mice, 3 mg/kg body weight by gavage, isolated 1 hour after administration; for 2-AG concentration: control 9.9; for arachidonic acid concentration: control 163.5; for migration into brain / intracerebral 2-AG concentration compared to control / intracerebral arachidonic acid concentration compared to control: oral administration to C57BL/6J mice; for intracerebral 2-AG concentration compared to control / intracerebral arachidonic acid concentration compared to control: result in words
Description: As the mouse, 8-week-old male C57BL/6J mice (CLEA Japan, Inc.) were used (6 mice/group). Administration solutions were prepared by suspending the test compounds (compound 1 (compound of Example 6), compound 2 (compound of Example 93) and compound 3 (compound of Example 97)) in 0.5% methylcellulose solution (Wako Pure Chemical Industries, Ltd.). The dose of the test compound was prepared to be 3 mg/kg body weight/10 mL. The test compounds were administered by gavage at 3 mg/kg body weight. The cerebrum was isolated after the administration of the test compound (isolation time after the administration of the test compound is shown in Table 3), and the cerebrum hemisphere was extracted. The obtained cerebrum hemisphere was frozen on dry ice, and the frozen tissue weight was measured.
The cerebral tissue weight was measured, and cerebral tissue was homogenized with 4-fold (v/w) of isopropanol (IPA), and double diluted with IPA. To the diluted sample (200 μL) was added internal standard solution (5 μL) ([5,6,8,9,11,12,14,15-D8]-(5Z,8Z,11Z,14Z)5,8,11,14-eicosatetraenoic acid (AA-d8, 0.5 nmol/mL IPA) and [5,6,8,9,11,12,14,15-D8]-(5Z,8Z,11Z,14Z)-5,8,11,14-eicosatetraenoyl-2-glycerol ester (2-AG-d8, 0.5 nmol/mL IPA)), and the mixture was centrifuged at 15000 rpm for 5 min. The supernatant was injected to liquid chromatographymass spectrometer to perform quantitative analysis.
For liquid chromatography, Shimadzu LC20A system (Shimadzu Corporation) was used. The separation was performed by gradient elution method with mobile phase A (10 mmol/L HCOONH4/HCOOH (100:0.2, v/v)) and mobile phase B (ethanol/IPA (3:2, v/v)) using Shim-pack XR-ODS (2.2 μm, 2.0×30 mm, Shimadzu Corporation) at column temperature of 50° C., at flow rate of 0.5 mL/min. The gradient conditions are as follows: 0-1 min, 1% B; 1-1.2 min, 1-55% B; 1.2-2.7 min, 55-75% B; 2.7-3.5 min, 75-99% B; 3.5-6 min, 99% B; 6-8 min, 1% B.
For mass spectrometer, API5000 (AB SCIEX) was used. The eluate from the liquid chromatography was directly ionized by turbospray ionization method, where (5Z,8Z,11Z,14Z)5,8,11,14-eicosatetraenoic acid (AA) and AA-d8 were measured by negative ionization mode, and (5Z,8Z,11Z,14Z)5,8,11,14-eicosatetraenoyl-2-glycerol ester (2-AG) and 2-AG-d8 were measured by positive ionization mode.
A solution for calibration curve was prepared to the concentration of 2, 5, 10, 20, 50, 100, 200, 500, 1000 nmol/mL of acetonitrile. These solutions (10 μL) was mixed with 200 μL of IPA and 5 μL of internal standard solution, and the mixture was centrifuged at 15000 rpm for 5 min, and the supernatant was injected to liquid chromatography mass spectrometer to perform analysis. The calibration curve was drawn by regression line with a weighting of 1/x^2, and the quantitativity was confirmed by accuracy of 100±20% and R^2>0.99.

[3] = test compound 10 μM, His-hMAGL, substrate 2-arachidonylglycerol, 60 min preincubation

SMILES	inhibition at 10 µM [1, 3]	2-AG concentration [2]	arachidonic acid concentration [2]	migration into brain [2]	intracerebral 2-AG concentration compared to control [2]	intracerebral arachidonic acid concentration compared to control [2]	inhibition at 10 µM [1]
O=C1N[C@]2(CO1)C[C@H](C(=O)N1CC(OCc3ccc(C(F)(F)F)cc3F)C1)C2 [Example 6, (2s,4s)-2-((3-((2-fluoro-4-(trifluoromethyl)benzyl)oxy)azetidin-1-yl)carbonyl)-7-oxa-5-azaspiro[3.4]octan-6-one]	100%	124.5 nmol/g	31.7 nmol/g	migrated into brain	increased significantly	decreased significantly	–
Cc1cc(C(F)(F)F)ccc1COC1CN(C(=O)[C@H]2C[C@]3(COC(=O)N3)C2)C1 [Example 93, (2s,4s)-2-((3-((2-methyl-4-(trifluoromethyl)benzyl)oxy)azetidin-1-yl)carbonyl)-7-oxa-5-azaspiro[3.4]octan-6-one]	100%	125.2 nmol/g	42.6 nmol/g	migrated into brain	increased significantly	decreased significantly	–
Cc1ccc(COC2CN(C(=O)[C@H]3C[C@]4(COC(=O)N4)C3)C2)cc1Cl [Example 97, (2s,4s)-2-((3-((3-chloro-4-methylbenzyl)oxy)azetidin-1-yl)carbonyl)-7-oxa-5-azaspiro[3.4]octan-6-one]	–	131.9 nmol/g	60.9 nmol/g	migrated into brain	increased significantly	decreased significantly	100%

Reference: patent US10323026B2, “Heterocyclic compound” (Takeda Pharmaceutical Company Limited, priority 2016, dated 2019)
